Experimental findings from publication PMC6375994, “Macrophage Migration Inhibitory Factor Acts as the Potential Target of a Newly Synthesized Compound, 1-(9′-methyl-3′-carbazole)-3, 4-dihydro-β-carboline” (Scientific Reports, 2019) are described below.

This assay concerns the target T1, recombinant human MIF protein (Homo sapiens, UniProt P14174).
T1 construct: commercial recombinant human MIF (PeproTech), amine-coupled to CM7 chip; homotrimer
T1 sequence (P14174 2-115): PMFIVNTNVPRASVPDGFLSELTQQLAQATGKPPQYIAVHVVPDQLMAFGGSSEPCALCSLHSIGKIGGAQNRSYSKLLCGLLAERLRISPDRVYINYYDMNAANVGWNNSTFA
Kind of assay: surface plasmon resonance (Biacore T200). Format: binding. For orientation: SPR reads the build-up and loss of mass on a sensor chip optically.

`Cn1c2ccccc2c2cc(C3=NCCc4c3[nH]c3ccccc43)ccc21` [compound 7, 1-(9′-methyl-3′-carbazole)-3,4-dihydro-β-carboline]: the Kd is 725 nM.

The term Kd denotes the free concentration of one partner at which half of the binding sites on the other are occupied at equilibrium, for simple one-to-one binding.
